Read-outs that look alike come from different tables or passages of the source. Positions of bridges follow the written chain, without caps; N, C: chain ends. Non-standard residues stand in square brackets, D forms with d. Residues, ends and D or L forms follow the SMILES beside them. ξ: configuration not given here. Ala(indol-4-yl) = N[C@@H](Cc1cccc2[nH]ccc12)C(=O)O; Trp(5-Cl) = N[C@@H](Cc1c[nH]c2ccc(Cl)cc12)C(=O)O; Phe(4-CH2NH2) = NCc1ccc(C[C@H](N)C(=O)O)cc1; Phe(3-Cl) = N[C@@H](Cc1cccc(Cl)c1)C(=O)O; Phe(4-CN) = N#Cc1ccc(C[C@H](N)C(=O)O)cc1; Phe(3-F) = N[C@@H](Cc1cccc(F)c1)C(=O)O; Phe(3-Me) = Cc1cccc(C[C@H](N)C(=O)O)c1; Bta = N[C@@H](Cc1csc2ccccc12)C(=O)O; Hyp = O=C(O)[C@@H]1C[C@@H](O)CN1; NMeF = CN[C@@H](Cc1ccccc1)C(=O)O; 4Pal = N[C@@H](Cc1ccncc1)C(=O)O; NMeNle = CCCC[C@H](NC)C(=O)O; NMeA = CN[C@@H](C)C(=O)O; Orn = NCCC[C@H](N)C(=O)O; Dab = NCC[C@H](N)C(=O)O; Dap = NC[C@H](N)C(=O)O; ξC = NC(CS)C(=O)O; Sar = CNCC(=O)O
Columns and labels:
Human PD-L1/PD-1 = target: T1, Human PD-L1/PD-1 (Homo sapiens, UniProt Q9NZQ7); assay: HTRF PD-1-Ig/PD-L1-His binding assay (human PD-L1)
T1 construct: made in house; host or cells: HEK293T
T1 sequence (Q9NZQ7 with tags, fused parts or gaps): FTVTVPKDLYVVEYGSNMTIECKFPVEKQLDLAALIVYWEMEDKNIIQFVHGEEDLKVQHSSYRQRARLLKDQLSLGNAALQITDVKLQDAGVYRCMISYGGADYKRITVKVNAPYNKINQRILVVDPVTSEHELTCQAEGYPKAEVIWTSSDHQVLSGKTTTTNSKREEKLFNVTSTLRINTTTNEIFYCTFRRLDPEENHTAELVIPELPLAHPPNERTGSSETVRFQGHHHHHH
Summary of the method: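 Steps: truncated PD-1-Ig and PD-L1-His fusions are incubated in dPBS containing 0.1% (w/v) BSA and 0.05% (v/v) Tween-20. Detection antibodies are then added (Eu cryptate anti-Ig at 1 nM final, APC anti-His at 20 nM final), and time-resolved FRET is measured.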

[1] = target: T2, LK35.2-hPD-L1 cells / PE-labeled PD-1-Ig (Homo sapiens, UniProt Q9NZQ7); assay: LK35.2-hPD-L1 cell binding high-content screening assay; format: cell-based
T2 construct: expressed in transfected cells; host or cells: LK35.2 mouse B cell line
T2 sequence (Q9NZQ7 19-290): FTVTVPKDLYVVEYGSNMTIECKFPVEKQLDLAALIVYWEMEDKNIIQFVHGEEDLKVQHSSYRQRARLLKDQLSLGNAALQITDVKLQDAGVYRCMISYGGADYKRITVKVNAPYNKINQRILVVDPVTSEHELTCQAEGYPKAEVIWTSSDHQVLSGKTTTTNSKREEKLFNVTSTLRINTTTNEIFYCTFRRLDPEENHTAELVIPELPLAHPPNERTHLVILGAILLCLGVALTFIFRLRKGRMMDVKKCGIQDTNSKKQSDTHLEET
Summary of the method: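 Binding of PE-conjugated human PD-1-Ig (1 nM final) to human PD-L1 stably expressed on a mouse B-cell line (LK35.2) was measured by high-content imaging after washes. Compound and labeled PD-1-Ig were co-incubated 1 h at 37 °C with cells in RPMI/10% FCS.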

[2] = cluster symbol, read-out: HTRF IC50 cluster
[3] = cluster symbol, cell line of CBA not given (LK35.2-hPD-L1 or 293T-hPD-L1), read-out: CBA IC50 cluster
[4] = cell binding assay, cell line not given, cluster symbol, read-out: CBA IC50 cluster

Compound	IC50 (Human PD-L1/PD-1; [2]) [nM]	IC50 [1, 3] [nM]	IC50 [1, 4] [nM]	IC50 (Human PD-L1/PD-1; numeric value, read-out: HTRF IC50 values) [nM]	IC50 ([1]; cell binding assay, cell line not given, numeric value, read-out: CBA IC50 values) [nM]
CCCC[C@H]1C(=O)N(C)[C@@H](CCCC)C(=O)N[C@@H](CCCNC(=N)N)C(=O)N[C@H](C(=O)NCC(N)=O)CSCC(=O)N[C@@H](Cc2cccc3[nH]ccc23)C(=O)N(C)[C@@H](C)C(=O)N[C@@H](CC(N)=O)C(=O)N2CCC[C@H]2C(=O)N[C@@H](Cc2cnc[nH]2)C(=O)N[C@@H](CC(C)C)C(=O)N(C)CC(=O)N[C@@H](Cc2c[nH]c3ccccc23)C(=O)N[C@@H](CO)C(=O)N[C@@H](Cc2c[nH]c3ccccc23)C(=O)N1C [Example 1094] ({CH2CO}-[Ala(indol-4-yl)][NMeA]NPHL[Sar]WSW[NMeNle][NMeNle]RCG-NH2; thioether N-14)	6.76 to 30.3	0.158 to 4.71	–	–	–
CCCC[C@H]1C(=O)N(C)[C@@H](CCCC)C(=O)N[C@@H](CCCNC(=N)N)C(=O)N[C@H](C(=O)NCC(N)=O)CSCC(=O)N[C@@H](Cc2cccc(C)c2)C(=O)N(C)[C@@H](C)C(=O)N[C@@H](CC(N)=O)C(=O)N2CCC[C@H]2C(=O)N[C@@H](CN)C(=O)N[C@@H](CC(C)C)C(=O)N2C[C@H](O)C[C@H]2C(=O)N[C@@H](Cc2c[nH]c3ccccc23)C(=O)N[C@@H](CO)C(=O)N[C@@H](Cc2c[nH]c3ccccc23)C(=O)N1C [Example 7035] ({CH2CO}-[Phe(3-Me)][NMeA]NP[Dap]L[Hyp]WSW[NMeNle][NMeNle]RCG-NH2; thioether N-14)	0.385 to 6.74	–	4.78 to 72.9	–	–
CCCC[C@H]1C(=O)N(C)[C@@H](CCCC)C(=O)N[C@@H](CCCNC(=N)N)C(=O)N[C@H](C(=O)NCC(N)=O)CSCC(=O)N[C@@H](Cc2ccccc2)C(=O)N(C)[C@@H](C)C(=O)N[C@@H](CC(N)=O)C(=O)N2CCC[C@H]2C(=O)N[C@@H](Cc2cnc[nH]2)C(=O)N[C@@H](CC(C)C)C(=O)N(C)CC(=O)N[C@@H](Cc2c[nH]c3ccc(Cl)cc23)C(=O)N[C@@H](CO)C(=O)N[C@@H](Cc2c[nH]c3ccccc23)C(=O)N1C [Example 1026] ({CH2CO}-F[NMeA]NPHL[Sar][Trp(5-Cl)]SW[NMeNle][NMeNle]RCG-NH2; thioether N-14)	> 30.5	> 74.3	–	–	–
CCCC[C@H]1C(=O)N(C)[C@@H](CCCC)C(=O)N[C@@H](CCCN)C(=O)N[C@H](C(=O)NCC(N)=O)CSCC(=O)N[C@@H](Cc2ccc(O)cc2)C(=O)N(C)[C@@H](C)C(=O)N[C@@H](CC(=O)O)C(=O)N2CCC[C@H]2C(=O)N[C@@H](CN)C(=O)N[C@@H](CC(=O)O)C(=O)N2C[C@H](O)C[C@H]2C(=O)N[C@@H](Cc2c[nH]c3ccccc23)C(=O)N[C@@H](CCN)C(=O)N[C@@H](Cc2csc3ccccc23)C(=O)N1C [Example 1184] ({CH2CO}-Y[NMeA]DP[Dap]D[Hyp]W[Dab][Bta][NMeNle][NMeNle][Orn]CG-NH2; thioether N-14)	0.385 to 6.74	0.158 to 4.71	–	–	–
CCCC[C@H]1C(=O)N(C)CC(=O)N[C@@H](CC(N)=O)C(=O)N[C@@H](C(C)C)C(=O)N(C)[C@@H](Cc2ccccc2)C(=O)N[C@@H](Cc2ccc(O)cc2)C(=O)N(C)CC(=O)N[C@@H](Cc2c[nH]c3ccccc23)C(=O)N[C@@H](Cc2ccc(O)cc2)C(=O)N[C@@H](CCCN)C(=O)N[C@H](C(=O)NCC(N)=O)CSCC(=O)N[C@@H](Cc2ccccc2)C(=O)N[C@@H](Cc2ccncc2)C(=O)N1C [Example 3610] ({CH2CO}-F[4Pal][NMeNle][Sar]NV[NMeF]Y[Sar]WY[Orn]CG-NH2; thioether N-13)	6.76 to 30.3	–	4.78 to 72.9	–	–
CCCC[C@H]1C(=O)N(C)[C@@H](CCCC)C(=O)N[C@@H](CCCNC(=N)N)C(=O)N[C@H](C(=O)NCC(N)=O)CSCC(=O)N[C@@H](Cc2ccc(O)cc2)C(=O)N(C)[C@@H](C)C(=O)N[C@@H](CC(N)=O)C(=O)N2CCC[C@H]2C(=O)N[C@@H](Cc2cnc[nH]2)C(=O)N[C@@H](CCC(=O)O)C(=O)N2CCC[C@H]2C(=O)N[C@@H](Cc2c[nH]c3ccccc23)C(=O)N[C@@H](CO)C(=O)N[C@@H](Cc2csc3ccccc23)C(=O)N1C [Example 1115] ({CH2CO}-Y[NMeA]NPHEPWS[Bta][NMeNle][NMeNle]RCG-NH2; thioether N-14)	0.385 to 6.74	0.158 to 4.71	–	–	–
CCCC[C@H]1C(=O)N(C)[C@@H](CCCC)C(=O)N[C@@H](CCCNC(=N)N)C(=O)NC(C(=O)NCC(N)=O)CSCC(=O)N[C@@H](Cc2ccc(O)cc2)C(=O)N(C)[C@@H](C)C(=O)N[C@@H](CC(N)=O)C(=O)N2C[C@H](O)C[C@H]2C(=O)N[C@@H](Cc2cnc[nH]2)C(=O)N[C@@H](CC(C)C)C(=O)N2C[C@H](O)C[C@H]2C(=O)N[C@@H](Cc2c[nH]c3ccccc23)C(=O)N[C@@H](CO)C(=O)N[C@@H](Cc2c[nH]c3ccccc23)C(=O)N1C (some centres unmarked) [Example 9013] ({CH2CO}-Y[NMeA]N[Hyp]HL[Hyp]WSW[NMeNle][NMeNle]R[ξC]G-NH2; thioether N-14)	–	–	–	8.11	5.97
CCCC[C@H]1C(=O)N(C)CC(=O)N[C@@H](CC(=O)O)C(=O)N[C@@H](C(C)C)C(=O)N(C)[C@@H](Cc2ccccc2)C(=O)N[C@@H](Cc2ccc(CN)cc2)C(=O)N(C)CC(=O)N[C@@H](Cc2c[nH]c3ccccc23)C(=O)N[C@@H](Cc2ccc(O)cc2)C(=O)N[C@@H](CC(C)C)C(=O)N[C@H](C(=O)NCC(N)=O)CSCC(=O)N[C@@H](Cc2cccc(Cl)c2)C(=O)N(C)[C@@H](Cc2ccccc2)C(=O)N1C [Example 3122] ({CH2CO}-[Phe(3-Cl)][NMeF][NMeNle][Sar]DV[NMeF][Phe(4-CH2NH2)][Sar]WYLCG-NH2; thioether N-13)	6.76 to 30.3	4.78 to 72.9	–	–	–
CCCC[C@H]1C(=O)N(C)[C@@H](CCCC)C(=O)N[C@@H](CCCNC(=N)N)C(=O)N[C@H](C(=O)NCC(N)=O)CSCC(=O)N[C@@H](Cc2ccc(C#N)cc2)C(=O)N(C)[C@@H](C)C(=O)N[C@@H](CC(N)=O)C(=O)N2CCC[C@H]2C(=O)N[C@@H](CN)C(=O)N[C@@H](CC(C)C)C(=O)N2C[C@H](O)C[C@H]2C(=O)N[C@@H](Cc2c[nH]c3ccccc23)C(=O)N[C@@H](CO)C(=O)N[C@@H](Cc2c[nH]c3ccccc23)C(=O)N1C [Example 7038] ({CH2CO}-[Phe(4-CN)][NMeA]NP[Dap]L[Hyp]WSW[NMeNle][NMeNle]RCG-NH2; thioether N-14)	0.385 to 6.74	–	0.158 to 4.71	–	–
CCCC[C@H]1C(=O)N(C)[C@@H](CCCC)C(=O)N[C@@H](CCCNC(=N)N)C(=O)N[C@H](C(=O)NCC(N)=O)CSCC(=O)N[C@@H](Cc2ccccc2)C(=O)N(C)[C@@H](C)C(=O)N[C@@H](CC(=O)O)C(=O)N2CCC[C@H]2C(=O)N[C@@H](Cc2cnc[nH]2)C(=O)N[C@@H](CC(C)C)C(=O)N(C)CC(=O)N[C@@H](Cc2c[nH]c3ccccc23)C(=O)N[C@@H](CO)C(=O)N[C@@H](Cc2c[nH]c3ccccc23)C(=O)N1C [Example 1092] ({CH2CO}-F[NMeA]DPHL[Sar]WSW[NMeNle][NMeNle]RCG-NH2; thioether N-14)	6.76 to 30.3	4.78 to 72.9	–	–	–
CCCC[C@H]1C(=O)N(C)[C@@H](CCCC)C(=O)N[C@@H](CCCNC(=N)N)C(=O)N[C@H](C(=O)NCC(N)=O)CSCC(=O)N[C@@H](Cc2cccc(F)c2)C(=O)N(C)[C@@H](C)C(=O)N[C@@H](CC(N)=O)C(=O)N2CCC[C@H]2C(=O)N[C@@H](Cc2cnc[nH]2)C(=O)N[C@@H](CC(C)C)C(=O)N2CCC[C@H]2C(=O)N[C@@H](Cc2c[nH]c3ccccc23)C(=O)N[C@@H](CO)C(=O)N[C@@H](Cc2c[nH]c3ccccc23)C(=O)N1C [Example 7016] ({CH2CO}-[Phe(3-F)][NMeA]NPHLPWSW[NMeNle][NMeNle]RCG-NH2; thioether N-14)	6.76 to 30.3	–	4.78 to 72.9	–	–
CCCC[C@H]1C(=O)N[C@@H](CCCNC(=N)N)C(=O)N[C@H](C(=O)NCC(N)=O)CSCC(=O)N[C@@H](Cc2ccccc2)C(=O)N(C)[C@@H](C)C(=O)N[C@@H](CC(N)=O)C(=O)N2CCC[C@H]2C(=O)N[C@@H](Cc2cnc[nH]2)C(=O)N[C@@H](CC(C)C)C(=O)N(C)CC(=O)N[C@@H](Cc2c[nH]c3ccccc23)C(=O)N[C@@H](CO)C(=O)N[C@@H](Cc2c[nH]c3ccccc23)C(=O)N[C@@H](C)C(=O)N1C [Example 1057] (HELM PEPTIDE1{[O=C(C[*:3])[*:2]].F.[meA].N.P.H.L.[Sar].W.S.W.A.[CCCC[C@@H](C(=O)[*:2])N(C)[*:1]].R.C.G.[am]}$PEPTIDE1,PEPTIDE1,1:R3-15:R3$$$V2.0)	> 30.5	> 74.3	–	–	–
CCCC[C@H]1C(=O)N(C)[C@@H](CCCC)C(=O)N[C@@H](CCC(=O)O)C(=O)N[C@H](C(=O)NCC(N)=O)CSCC(=O)N[C@@H](Cc2ccc(O)cc2)C(=O)N(C)[C@@H](C)C(=O)N[C@@H](CCN)C(=O)N2CCC[C@H]2C(=O)N[C@@H](CO)C(=O)N[C@@H](CCC(=O)O)C(=O)N2C[C@H](O)C[C@H]2C(=O)N[C@@H](Cc2c[nH]c3ccccc23)C(=O)N[C@@H](CCCCN)C(=O)N[C@@H](Cc2c[nH]c3ccccc23)C(=O)N1C [Example 5085] ({CH2CO}-Y[NMeA][Dab]PSE[Hyp]WKW[NMeNle][NMeNle]ECG-NH2; thioether N-14)	0.385 to 6.74	–	0.158 to 4.71	–	–

Reference: patent US9850283B2, “Macrocyclic inhibitors of the PD-1/PD-L1 and CD80(B7-1)/PD-L1 protein/protein interactions” (BRISTOL-MYERS SQUIBB COMPANY, priority 2013, dated 2017)
